In ChEMBL document CHEMBL4680289, “10-(4-Phenylpiperazine-1-carbonyl)acridin-9(10H)-ones and related compounds: Synthesis, antiproliferative activity and inhibition of tubulin polymerization” (Bioorg Med Chem Lett, 2021):
The source made the active and inactive calls. The rule behind the calls is not given here.

Key:
K562 [1] = experiment: Antiproliferative activity against human K562 cells assessed as cell growth inhibition measured after 48 hrs by MTT assay; assay type: functional, cell-based; conditions: K562, 48 h
[2] = Inhibition of porcine brain tubulin polymerization assessed as reduction in tubulin assembly at 37 degreeC measured after 40 mins in presence of GTP by turbidimetric analysis; design: species or system Sus scrofa
K562 [3] = experiment: Cell cycle arrest in human K562 cells assessed as increase in cell accumulation at G2/M phase measured after 18 hrs by propidium iodide/RNase FACSCalibur staining based flow cytometry; assay type: functional; conditions: dose 0.003-1 µmol/L
[4] = biological target: T1, Tubulin beta (Homo sapiens) (UniProt P68371+Q9H4B7+Q13509+P04350+Q3ZCM7+P07437+Q13885+Q9BVA1+Q9BUF5+A6NNZ2); experiment: Inhibition of N,N'-Ethylenebis(iodoacetamide) binding to beta-tubulin colchicine binding site in human K562 cells assessed as reduction in EBI/beta-tubulin adduct formation preincubated for 2.5 hrs followed by EBI addition and measured after 1.5 hrs by Western blot analysis relative to control; assay type: cell-based; conditions: time 4.0 hrs, concentration not given here
K562 [5] = experiment: Induction of apoptosis in human K562 cells at 3 uM measured after 48 hrs by Annexin V-FITC/7-AAD staining based flow cytometric analysis; assay type: functional, cell-based
K562 [6] = experiment: Induction of apoptosis in human K562 cells at 30 nM measured after 48 hrs by Annexin V-FITC/7-AAD staining based flow cytometric analysis; assay type: functional, cell-based
MG-63 = experiment: Antiproliferative activity against human MG-63 cells assessed as cell growth inhibition measured after 72 hrs by sulforhodamine B assay; assay type: functional
5637 = experiment: Antiproliferative activity against human 5637 cells assessed as cell growth inhibition measured after 72 hrs by sulforhodamine B assay; assay type: functional
MV4-11 = experiment: Antiproliferative activity against human MV4-11 cells assessed as cell growth inhibition measured after 72 hrs by sulforhodamine B assay; assay type: functional
Ca-Ski = experiment: Antiproliferative activity against human Ca-Ski cells assessed as cell growth inhibition measured after 72 hrs by sulforhodamine B assay; assay type: functional
DU-145 = experiment: Antiproliferative activity against human DU-145 cells assessed as cell growth inhibition measured after 72 hrs by sulforhodamine B assay; assay type: functional
L-363 = experiment: Antiproliferative activity against human L-363 cells assessed as cell growth inhibition measured after 72 hrs by sulforhodamine B assay; assay type: functional
[7] = Cytotoxicity against human IMR-90 cells assessed as cell growth inhibition measured after 72 hrs by sulforhodamine B assay; assay type: cell-based
K562 [8] = experiment: Cell cycle arrest in human K562 cells assessed as increase in cell accumulation at G2/M phase at < 30 nM measured after 18 hrs by propidium iodide/RNase FACSCalibur staining based flow cytometry; assay type: functional; conditions: dose nM <30, time 18.0 hrs
Ramos = experiment: Antiproliferative activity against human Ramos cells assessed as cell growth inhibition measured after 72 hrs by sulforhodamine B assay; assay type: functional
BXPC-3 = experiment: Antiproliferative activity against human BXPC-3 cells assessed as cell growth inhibition measured after 72 hrs by sulforhodamine B assay; assay type: functional
[9] = biological target: T1, Tubulin beta (Homo sapiens); experiment: Inhibition of N,N'-Ethylenebis(iodoacetamide) binding to beta-tubulin colchicine binding site in human K562 cells assessed as reduction in EBI/beta-tubulin adduct formation at 1 to 10 uM preincubated for 2.5 hrs followed by EBI addition and measured after 1.5 hrs by Western blot analysis; assay type: cell-based; conditions: dose 1-10 µM, time 4.0 hrs
SK-N-AS = experiment: Antiproliferative activity against human SK-N-AS cells assessed as cell growth inhibition measured after 72 hrs by sulforhodamine B assay; assay type: functional
[10] = Cytotoxicity against human PBMC cells assessed as cell growth inhibition measured after 72 hrs by sulforhodamine B assay; assay type: cell-based
[11] = Antiproliferative activity against human RDES cells assessed as cell growth inhibition measured after 72 hrs by sulforhodamine B assay; assay type: functional; conditions: RD-ES
NCI-H460 = experiment: Antiproliferative activity against human NCI-H460 cells assessed as cell growth inhibition measured after 72 hrs by sulforhodamine B assay; assay type: functional
SNB-75 = experiment: Antiproliferative activity against human SNB-75 cells assessed as cell growth inhibition measured after 72 hrs by sulforhodamine B assay; assay type: functional
HT-1080 = experiment: Antiproliferative activity against human HT-1080 cells assessed as cell growth inhibition measured after 72 hrs by sulforhodamine B assay; assay type: functional
PANC-1 = experiment: Antiproliferative activity against human PANC-1 cells assessed as cell growth inhibition measured after 72 hrs by sulforhodamine B assay; assay type: functional
HT-29 = experiment: Antiproliferative activity against human HT-29 cells assessed as cell growth inhibition measured after 72 hrs by sulforhodamine B assay; assay type: functional

Structure (SMILES) | IC50 (K562 [1]) [nM] | IC50 [2] [nM] | further results
COc1ccccc1C(=O)n1c2ccccc2c(=O)c2ccccc21 | 3900 | 5500 | –
O=C(N1CCN(c2cccc(Br)c2)CC1)n1c2ccccc2c(=O)c2ccccc21 | 39 | 690 | –
COc1cc(N2CCN(C(=O)n3c4ccccc4c(=O)c4ccccc43)CC2)cc(OC)c1OC | > 10000 | > 10000 | –
COc1ccc(C(=O)n2c3ccccc3c(=O)c3ccccc32)cc1 | 1300 | 1600 | Activity (K562 [3]): Dose-dependent effect; inhibition [4]: 100%; Activity (K562 [5]): Active
COc1ccc(C(=O)n2c3ccccc3c(=O)c3cc(C#N)ccc32)cc1 | 1300 | 1700 | –
COc1ccccc1N1CCN(C(=O)n2c3ccccc3c(=O)c3cnccc32)CC1 | 670 | 3900 | –
O=C(N1CCN(c2cccc([N+](=O)[O-])c2)CC1)n1c2ccccc2c(=O)c2ccccc21 | 200 | 560 | –
COc1ccccc1N1CCN(C(=O)n2c3ccccc3c(=O)c3cc([N+](=O)[O-])ccc32)CC1 | > 10000 | > 10000 | –
COc1ccc2c(c1)c(=O)c1cc(C#N)ccc1n2C(=O)N1CCN(c2ccccc2OC)CC1 | > 10000 | > 10000 | –
COc1ccc(C(=O)n2c3ccccc3c(=O)c3ccccc32)cc1O | 1300 | 680 | –
N#Cc1cccc(N2CCN(C(=O)n3c4ccccc4c(=O)c4ccccc43)CC2)c1 | 45 | 520 | –
O=C(N1CCN(c2cccnc2)CC1)n1c2ccccc2c(=O)c2ccccc21 | 620 | 2900 | –
COc1cc2c(c(OC)c1OC)-c1ccc(OC)c(=O)cc1[C@@H](NC(C)=O)CC2 [COLCHICINE] | 13 | – | Activity (K562 [6]): Active
COc1cccc(N2CCN(C(=O)n3c4ccccc4c(=O)c4cc(C#N)ccc43)CC2)c1 | 190 | – | –
COc1ccc(C(=O)n2c3ccccc3c(=O)c3ccccc32)cc1OCc1ccccc1 | > 10000 | > 10000 | –
Nc1cccc(N2CCN(C(=O)n3c4ccccc4c(=O)c4ccccc43)CC2)c1 | 900 | 1300 | –
COc1cccc(N2CCN(C(=O)n3c4ccccc4c(=O)c4cc([N+](=O)[O-])ccc43)CC2)c1 | > 10000 | 4200 | –
COc1cccc(N2CCN(C(=O)n3c4ccccc4c(=O)c4cccnc43)CC2)c1 | 32 | 450 | –
COc1cccc(N2CCN(C(=O)n3c4ccccc4c(=O)c4cnccc43)CC2)c1 | 230 | 720 | –
O=C(N1CCN(c2cccc(F)c2)CC1)n1c2ccccc2c(=O)c2ccccc21 | 89 | 710 | –
COc1ccccc1N1CCN(C(=O)n2c3ccccc3c(=O)c3cccnc32)CC1 | 190 | 1340 | –
COc1cccc(N2CCN(C(=O)n3c4ccc(C#N)cc4c(=O)c4cc(OC)ccc43)CC2)c1 | > 10000 | > 10000 | –

Structure (SMILES) | IC50 (K562 [1]) [nM] | IC50 [2] [nM] | further results
COc1cccc(N2CCN(C(=O)n3c4ccccc4c(=O)c4cc(OC)ccc43)CC2)c1 | 330 | 820 | –
COc1ccccc1N1CCN(C(=O)n2c3ccccc3c(=O)c3cc(N)ccc32)CC1 | 1300 | 3100 | –
O=C(N1CCN(c2ccc(Cl)cc2)CC1)n1c2ccccc2c(=O)c2ccccc21 | 6100 | > 10000 | –
O=C(N1CCN(c2ccccc2)CC1)n1c2ccccc2c(=O)c2ccccc21 | 390 | 900 | –
COc1cccc(N2CCN(C(=O)n3c4ccccc4c(=O)c4ccccc43)CC2)c1 | 26 | 330 | GI50 (MG-63): 2 nM; GI50 5637: 2.1 nM; GI50 (MV4-11): 13.5 nM; GI50 (Ca-Ski): 12.3 nM; GI50 (DU-145): 17.9 nM; GI50 (L-363): 14.8 nM; Activity (K562 [3]): Dose-dependent effect; GI50 at 72 h [7]: 1.4 nM; Activity (K562 [8]): Active; GI50 (Ramos): 18 nM; GI50 (BXPC-3): 1.9 nM; inhibition [9]: Active; GI50 (SK-N-AS): 1.3 nM; GI50 at 72 h [10]: > 10000 nM; GI50 [11]: 29.8 nM; GI50 (NCI-H460): 13.2 nM; GI50 (SNB-75): 12.4 nM; GI50 (HT-1080): 2.1 nM; GI50 (PANC-1): 2.1 nM; GI50 (HT-29): 2.1 nM
CC[C@]1(O)C[C@H]2CN(CCc3c([nH]c4ccccc34)[C@@](C(=O)OC)(c3cc4c(cc3OC)N(C)[C@H]3[C@@](O)(C(=O)OC)[C@H](OC(C)=O)[C@]5(CC)C=CCN6CC[C@]43[C@@H]65)C2)C1 | 12 | 130 | –
COC(=O)Nc1nc2cc(C(=O)c3cccs3)ccc2[nH]1 [NOCODAZOLE] | 220 | 760 | –
COc1ccccc1N1CCN(C(=O)n2c3ccccc3c(=O)c3cc(C#N)ccc32)CC1 | 830 | 3400 | –
COc1ccccc1N1CCN(C(=O)n2c3ccccc3c(=O)c3ccccc32)CC1 | 55 | 530 | –
COc1ccc(N2CCN(C(=O)n3c4ccccc4c(=O)c4ccccc43)CC2)cc1 | > 10000 | > 10000 | –
COc1ccc(C(=O)n2c3ccccc3c(=O)c3cc(OC)ccc32)cc1 | 3900 | 1400 | –
COc1cccc(N2CCN(C(=O)n3c4ccccc4c(=O)c4cc(N)ccc43)CC2)c1 | 440 | 1250 | –
COc1ccc(N2CCN(C(=O)n3c4ccccc4c(=O)c4ccccc43)CC2)c(OC)c1 | 3000 | 4700 | –
O=C(c1ccccc1)n1c2ccccc2c(=O)c2ccccc21 | > 10000 | > 10000 | –
O=C(N1CCN(c2ccc([N+](=O)[O-])cc2)CC1)n1c2ccccc2c(=O)c2ccccc21 | > 10000 | > 10000 | –
COc1ccc2c(c1)c(=O)c1ccccc1n2C(=O)N1CCN(c2ccccc2OC)CC1 | 1100 | 3500 | –
COc1cccc(C(=O)n2c3ccccc3c(=O)c3ccccc32)c1 | > 10000 | > 10000 | –
Nc1ccc(N2CCN(C(=O)n3c4ccccc4c(=O)c4ccccc43)CC2)cc1 | > 10000 | > 10000 | –
O=C(N1CCN(c2ccccc2Cl)CC1)n1c2ccccc2c(=O)c2ccccc21 | 4800 | 7100 | –
O=C(N1CCN(c2cccc(Cl)c2)CC1)n1c2ccccc2c(=O)c2ccccc21 | 38 | 600 | –
COc1ccc(C(=O)n2c3ccccc3c(=O)c3ccccc32)cc1OC | > 10000 | > 10000 | –
COc1ccc(OC)c(N2CCN(C(=O)n3c4ccccc4c(=O)c4ccccc43)CC2)c1 | 60 | 440 | –
